Data on 12 compounds can be found in publication PMC6661759 (BMC Chemistry, 2019).

Converted amounts (≈) assume the structure as drawn. Read-outs that look alike come from different tables or passages of the source.

Assay [1] addresses T1, Jack Bean Urease (Canavalia ensiformis, UniProt P07374).
T1 construct: purchased Sigma Aldrich
Kind of assay: biochemical. The protocol:
(§1) As structure of urease from different sources has common structural features therefore urease inhibition studies were carried out on jack bean urease. Inhibition studies were carried out by indophenol technique described by Weatherburn in which measurement of concentration of ammonia released during the reaction between reagents and compounds were done.
Urease enzyme inhibition investigation studies for all synthesized compounds were done by the method developed by Weatherburn (1967) named Indophenol against Jack Bean Urease. Briefly, incubation of solution of Jack bean protein 25 μL was done at temperature of 30 °C for a period of 15 min with 55 μL of buffers solution having 100 mM urea and 5 μL of test solution in 96-well plates. 45 μL phenol solution composing phenol 1% w/v and solution of sodium nitroprusside 0.005% w/v and alkali reagent 70 μL composed of sodium hydroxide 0.5% w/v and active sodium hypochloride solution 0.1% were mixed to every well. The measurement of increase in absorption at 625 nm was done after 50 min by help of a microplate reader (Molecular Device, USA). Readings were recorded in triplicate set in a final volume of 200 μL using thiourea as standard. Each assay was performed at pH 8.2 (0.01 M K2HPO4.3H2O, 0.01 M […] and 1 mM EDTA). Calculation of Inhibition in percentage of synthesized derivatives was done by the formula given as: I\%=AControl-ASample/AControl×100 where, Acontrol is control absorbance; Asample is test absorbance.

In assay [2] the test system is Helicobacter pylori DSM 4867. As to the kind of experiment: MIC against Helicobacter pylori by micro broth dilution technique. The format is cell-based. To be noted: H. pylori DSM 4867, micro broth dilution. How it is done: (§2) Derivatives C4a, C4b and C4d which were found best in urease inhibition and antioxidant activity as well as in terms of docking score were tested further against antibacterial efficiency against Helicobacter pylori DSM 4867 using AHA as a standard and DMSO as control. […] In-vitro results concluded that compound C4a bearing nitro and chloro group at 2nd and 4th position indicated excellent antibacterial action against H. Pylori probably by interacting with the target protein efficiently and inhibited the growth of pathogenic bacteria.
(§3) Since H. Pylori is not acidophilic in nature therefore it requires urease, which produced ammonia by hydrolyzing urea present in stomach, for its survival in acidic gastric medium. Because of virulence nature of urease researchers decided to target its inhibition for anti-H. Pylori drugs. Novel synthesized derivatives were investigated against H. pylori bacterium (DSM 4867, AHA as standard) for their antibacterial activity by using Well diffusion technique. The stock solution of compounds in DMSO (1000 μg/mL) were prepared. Cell suspension was prepared from culture grown on BHI broth. The cell suspensions of all the cultures were adjusted to 1–2 × 10^5 cells/mL. Helicobacter pylori (100 µL) was inoculated by spread plate technique on agar plates (90 mm). […] MIC was determined against Helicobacter pylori by micro broth dilution technique as per NCCLS method.
In general terms: In broth dilution the organism is exposed to a series of concentrations in liquid medium.

Assay [3] has as its system H. pylori bacterium (DSM 4867). As to the kind of experiment: Anti-H. pylori activity, well diffusion technique. The format is cell-based, Helicobacter pylori. Conditions: H. pylori DSM 4867, 2500 µg per well, 24–48 h. The protocol:
as §2, §3
(In general: A growth-free zone around the sample is the usual read-out of agar diffusion tests.)

A short description of assay [4]: DPPH assay for antioxidant activity. Conditions: DPPH free radical scavenging, mean SEM. The protocol: as §1
Antioxidant nature of the synthesized derivatives was measured by the help of DPPH method. According to this method synthesized compounds were allowed to react for 0.5 h at 37 °C with stable free radical, 1, 1-diphenyl-2-picrylhydrazyl radical (DPPH). The DPPH was taken in a concentration of 300 µM. Decrease in value of absorption at 515 nm was measured after the period of incubation using a microplate reader using ascorbic acid as a standard. Molecule capable of donating proton to DPPH and cause its reduction acts as an antioxidant. Following reduction deep violet coloured DPPH solution changes to yellow depending upon the nature of antioxidant compound, which brings a measurable decrease in value of absorption at 517 nm. The proton or electron donating capacity of the derivative was estimated from the fading of deep purple colored methanolic solution of 1, 1-diphenylpicrylhydrazyl (DPPH). Incubation of mixture was done at room temperature for 30 min and measurements were done at 517 nm against blank. Calculation of percentage inhibition was done by following formula: I\%=AControl-ASample/AControl×100 where, Acontrol is control absorbance; Asample is test absorbance.
Background: The DPPH test is a chemical assay of radical scavenging.

Assay [5] addresses T1, Jack Bean Urease. Kind of assay: Enzyme kinetics, Lineweaver-Burk plot. The format is biochemical. Conditions: varying urea, phosphate buffer, 1 mM EDTA, pH 8.2. The protocol:
Study of inhibitory effect of chlorogenic derivatives on jack bean urease was performed to check the inhibitory potential, kinetics studies and mechanism of inhibition in phosphate buffer and 1 mM EDTA at pH 8.2. […] Competitive inhibition infers that compound C4a will probably compete for binding at the site of substrate in enzyme active site pocket.
(substrate concentration) against 1/[V] velocity. To examine the mode of inhibition compound C4a was solubilized in DMSO and further dilutions were prepared accordingly. Plot was prepared by using varying concentration of substrate (urea) in with varying concentration of inhibitor C4a. Inhibitory constant values (Ki) were determined as the interaction on the X-axis of the plots of the slope against different concentration of derivatives C4a. […] All experiments were performed in triplicate and kinetic study for interaction of enzyme with inhibitor was computed with Graphpad prism 7.0 software.

T1 sequence (P07374 whole entry, looked up): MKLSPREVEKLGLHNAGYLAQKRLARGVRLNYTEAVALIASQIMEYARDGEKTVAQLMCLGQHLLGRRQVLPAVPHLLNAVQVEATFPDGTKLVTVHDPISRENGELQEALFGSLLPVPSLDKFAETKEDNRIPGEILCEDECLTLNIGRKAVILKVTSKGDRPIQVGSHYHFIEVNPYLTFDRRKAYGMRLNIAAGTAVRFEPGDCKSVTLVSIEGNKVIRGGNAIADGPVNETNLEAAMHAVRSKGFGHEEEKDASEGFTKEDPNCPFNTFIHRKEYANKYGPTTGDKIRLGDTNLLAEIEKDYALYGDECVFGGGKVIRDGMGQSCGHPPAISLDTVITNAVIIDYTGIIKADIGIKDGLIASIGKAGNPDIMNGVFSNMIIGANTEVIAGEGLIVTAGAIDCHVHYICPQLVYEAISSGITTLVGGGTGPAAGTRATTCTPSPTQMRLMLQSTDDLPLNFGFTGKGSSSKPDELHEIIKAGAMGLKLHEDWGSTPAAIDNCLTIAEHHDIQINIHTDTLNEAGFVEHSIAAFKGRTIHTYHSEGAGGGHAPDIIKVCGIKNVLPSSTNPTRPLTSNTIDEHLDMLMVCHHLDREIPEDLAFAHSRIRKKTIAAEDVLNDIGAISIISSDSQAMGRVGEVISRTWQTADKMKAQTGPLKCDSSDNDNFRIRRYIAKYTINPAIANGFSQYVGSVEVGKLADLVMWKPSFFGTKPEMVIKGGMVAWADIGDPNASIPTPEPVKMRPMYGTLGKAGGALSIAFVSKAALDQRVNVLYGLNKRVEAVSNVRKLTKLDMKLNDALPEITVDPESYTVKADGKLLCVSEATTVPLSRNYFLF

For the compound `O=C(/C=C/c1ccc(O)c(O)c1)O[C@@H]1C[C@](O)(C(=O)O)C[C@@H](O)[C@H]1O` [CHLG, chlorogenic acid, reference compound], it took 22.68 ± 0.006 µM to reach half-maximal inhibition on Jack Bean Urease [1] (IC50).
Take `CC(=O)NO` [AHA, acetohydroxamic acid, reference compound]: the MIC (usually the least concentration at which growth counts as inhibited) in assay [2] is 1000 µg/mL (≈ 13300 µM). In addition, in assay [3], the zone of inhibition (in general, the size of the clear area around the sample on an inoculated plate) came to 9.00 ± 0.50 mm.
`O=C(/C=C/c1ccc(O)c(O)c1)O[C@@H]1C[C@](O)(C(=O)Nc2ccccc2F)CC(O)C1O` (stereo partly drawn) [C4h, (1R, 5S)-5-((2-fluorophenyl)carbamoyl)-2,3,5-trihydroxycyclohexyl (2E)-3-(3,4-dihydroxyphenyl)prop-2-enoate]: the IC50 (commonly the concentration that gives 50% inhibition) in assay [4] is 7.23 ± 0.008 µM; at Jack Bean Urease [1], 21.24 ± 0.016 µM.
On to `O=C(/C=C/c1ccc(O)c(O)c1)O[C@@H]1C[C@](O)(C(=O)Nc2cccc([N+](=O)[O-])c2)CC(O)C1O` (stereo partly drawn) [C4d, (1R, 5S)-2,3,5-trihydroxy-5-((3-nitrophenyl)carbamoyl)cyclohexyl (2E)-3-(3,4-dihydroxyphenyl)prop-2-enoate], for which the 50% inhibitory concentration (IC50) in assay [4] was determined as 5.34 ± 0.007 µM; at Jack Bean Urease [1], 13.8 ± 0.041 µM.
`O=C(/C=C/c1ccc(O)c(O)c1)O[C@@H]1C[C@](O)(C(=O)Nc2ccc(Br)cc2)CC(O)C1O` (stereo partly drawn) [C4c, (1R, 5S)-5-((4-bromophenyl)carbamoyl)-2,3,5-trihydroxycyclohexyl (2E)-3-(3,4-dihydroxyphenyl)prop-2-enoate]: the values for the 50% inhibitory concentration (IC50) (in assay [4]; on Jack Bean Urease [1]) were 8.48 ± 0.026 µM and 22.02 ± 0.027 µM, respectively.
As to `NC(N)=S` [Thiourea, thiourea, reference compound], at Jack Bean Urease [1] (jack bean urease, indophenol method, pH 8.2, mean SEM, read-out: IC50 (µM) urease inhibition), the IC50 amounted to 22.8 ± 0.011 µM.
As for `O=C(/C=C/c1ccc(O)c(O)c1)O[C@@H]1C[C@](O)(C(=O)Nc2ccc(Cl)cc2[N+](=O)[O-])CC(O)C1O` (stereo partly drawn) [C4b, (1R, 5S)-5-((4-chloro-2-nitrophenyl)carbamoyl)-2,3,5-trihydroxycyclohexyl (2E)-3-(3,4-dihydroxyphenyl)prop-2-enoate], the values for the IC50 (in assay [4]; at Jack Bean Urease [1]) were 6.01 ± 0.005 µM and 15.86 ± 0.004 µM, respectively.
The corresponding values for `Cc1ccccc1NC(=O)[C@]1(O)CC(O)C(O)[C@H](OC(=O)/C=C/c2ccc(O)c(O)c2)C1` (stereo partly drawn) [C4g, (1R, 5S)-2,3,5-trihydroxy-5-((2-methylphenyl)carbamoyl)cyclohexyl (2E)-3-(3,4-dihydroxyphenyl)prop-2-enoate] are 7.75 ± 0.011 µM and 21.5 ± 0.032 µM.
Consider `COc1ccc(NC(=O)[C@]2(O)CC(O)C(O)[C@H](OC(=O)/C=C/c3ccc(O)c(O)c3)C2)cc1` (stereo partly drawn) [C4f, (1R, 5S)-2,3,5-trihydroxy-5-((4-methoxyphenyl)carbamoyl)cyclohexyl (2E)-3-(3,4-dihydroxyphenyl)prop-2-enoate], for which the values for the IC50 (in assay [4]; on Jack Bean Urease [1]) were 7.89 ± 0.006 µM and 21.83 ± 0.009 µM, respectively.
On to `COc1cccc(NC(=O)[C@]2(O)CC(O)C(O)[C@H](OC(=O)/C=C/c3ccc(O)c(O)c3)C2)c1` (stereo partly drawn) [C4e, (1R, 5S)-2,3,5-trihydroxy-5-((3-methoxyphenyl)carbamoyl) cyclohexyl (2E)-3-(3,4-dihydroxyphenyl)prop-2-enoate], for which the IC50 in assay [4] came to 6.85 ± 0.02 µM; against Jack Bean Urease [1], 20.6 ± 0.001 µM.
Regarding `O=C1O[C@H]([C@@H](O)CO)C(O)=C1O` [Ascorbic acid, ascorbic acid, reference compound], half-maximal inhibition in assay [4] (IC50) was put at 8.59 ± 0.004 µM.
Consider `O=C(/C=C/c1ccc(O)c(O)c1)O[C@@H]1C[C@](O)(C(=O)Nc2ccc([N+](=O)[O-])cc2Cl)CC(O)C1O` (stereo partly drawn) [C4a, (1R, 5S)-5-((2-chloro-4-nitrophenyl)carbamoyl)-2,3,5-trihydroxycyclohexyl (2E)-3-(3,4-dihydroxyphenyl)prop-2-enoate], for which the MIC in assay [2] (Helicobacter pylori, DSM4867, read-out: MIC) is 500 µg/mL (≈ 983 µM). Moreover, the zone of inhibition in assay [3] was 10.00 ± 0.00 mm. Further, the IC50 in assay [4] is 5.1 ± 0.018 µM; on Jack Bean Urease [1] it was 11.01 ± 0.013 µM. Moreover, on Jack Bean Urease [5], the mode of inhibition result was “competitive type of Inhibition”.
